What was measured:
Insulin receptor = Insulin receptor (Homo sapiens, UniProt P06213); experiment: Inhibition of insulin receptor autophosphorylation
[1] = molecular target: Epidermal growth factor receptor (Homo sapiens, UniProt P00533); experiment: Inhibition of Epidermal growth factor receptor autophosphorylation in A431 cell membranes
Epidermal growth factor receptor, sequence (P00533 whole entry): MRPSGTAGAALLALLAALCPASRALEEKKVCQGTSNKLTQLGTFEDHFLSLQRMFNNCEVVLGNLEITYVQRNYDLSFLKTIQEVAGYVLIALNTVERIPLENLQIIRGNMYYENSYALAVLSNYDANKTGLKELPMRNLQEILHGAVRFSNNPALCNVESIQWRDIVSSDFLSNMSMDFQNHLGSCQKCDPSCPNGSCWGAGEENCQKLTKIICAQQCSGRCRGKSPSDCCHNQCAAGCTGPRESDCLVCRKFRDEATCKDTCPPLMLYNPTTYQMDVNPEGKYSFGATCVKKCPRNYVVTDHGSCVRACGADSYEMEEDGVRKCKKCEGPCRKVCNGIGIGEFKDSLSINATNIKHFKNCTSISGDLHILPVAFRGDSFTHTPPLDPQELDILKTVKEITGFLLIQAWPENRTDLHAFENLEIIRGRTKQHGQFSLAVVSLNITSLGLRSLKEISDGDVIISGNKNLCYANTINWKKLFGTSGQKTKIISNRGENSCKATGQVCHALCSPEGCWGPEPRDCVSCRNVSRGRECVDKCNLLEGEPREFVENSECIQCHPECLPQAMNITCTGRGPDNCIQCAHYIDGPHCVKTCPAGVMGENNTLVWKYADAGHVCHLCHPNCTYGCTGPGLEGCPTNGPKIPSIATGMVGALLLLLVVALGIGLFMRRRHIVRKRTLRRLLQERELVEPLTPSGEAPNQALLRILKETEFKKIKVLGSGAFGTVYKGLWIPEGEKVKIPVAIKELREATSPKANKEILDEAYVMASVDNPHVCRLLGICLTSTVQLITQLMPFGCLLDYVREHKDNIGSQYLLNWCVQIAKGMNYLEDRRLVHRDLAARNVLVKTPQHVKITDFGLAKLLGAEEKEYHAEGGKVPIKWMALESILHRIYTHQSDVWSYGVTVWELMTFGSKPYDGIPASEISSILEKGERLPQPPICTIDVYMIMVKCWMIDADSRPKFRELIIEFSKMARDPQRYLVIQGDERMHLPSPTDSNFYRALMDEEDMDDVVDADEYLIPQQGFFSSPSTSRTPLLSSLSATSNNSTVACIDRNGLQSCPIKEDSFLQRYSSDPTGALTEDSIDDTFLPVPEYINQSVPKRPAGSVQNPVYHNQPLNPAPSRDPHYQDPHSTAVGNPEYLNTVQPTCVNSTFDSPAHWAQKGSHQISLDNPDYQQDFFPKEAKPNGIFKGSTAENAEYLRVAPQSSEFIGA

Insulin receptor, sequence (P06213 28-758 limits assumed): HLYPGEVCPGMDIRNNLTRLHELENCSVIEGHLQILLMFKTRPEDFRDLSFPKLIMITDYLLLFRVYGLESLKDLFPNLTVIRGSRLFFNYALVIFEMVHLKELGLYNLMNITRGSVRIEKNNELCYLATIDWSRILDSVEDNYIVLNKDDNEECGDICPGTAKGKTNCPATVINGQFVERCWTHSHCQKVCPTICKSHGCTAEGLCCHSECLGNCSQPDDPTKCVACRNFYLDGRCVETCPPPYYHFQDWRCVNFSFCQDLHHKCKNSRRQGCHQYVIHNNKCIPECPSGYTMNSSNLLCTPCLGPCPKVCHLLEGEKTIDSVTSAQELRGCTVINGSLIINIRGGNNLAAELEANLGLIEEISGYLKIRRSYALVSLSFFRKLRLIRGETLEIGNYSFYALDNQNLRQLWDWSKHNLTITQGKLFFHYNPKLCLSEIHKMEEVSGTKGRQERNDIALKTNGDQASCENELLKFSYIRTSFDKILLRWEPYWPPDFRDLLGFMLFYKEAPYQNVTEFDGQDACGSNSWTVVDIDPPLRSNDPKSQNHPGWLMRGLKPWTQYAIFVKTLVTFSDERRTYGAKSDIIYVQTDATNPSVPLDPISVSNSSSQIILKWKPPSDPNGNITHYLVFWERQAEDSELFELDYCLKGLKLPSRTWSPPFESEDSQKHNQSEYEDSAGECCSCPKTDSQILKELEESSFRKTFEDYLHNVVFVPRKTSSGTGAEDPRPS
Insulin receptor, sequence (P06213 763-1382 limits assumed): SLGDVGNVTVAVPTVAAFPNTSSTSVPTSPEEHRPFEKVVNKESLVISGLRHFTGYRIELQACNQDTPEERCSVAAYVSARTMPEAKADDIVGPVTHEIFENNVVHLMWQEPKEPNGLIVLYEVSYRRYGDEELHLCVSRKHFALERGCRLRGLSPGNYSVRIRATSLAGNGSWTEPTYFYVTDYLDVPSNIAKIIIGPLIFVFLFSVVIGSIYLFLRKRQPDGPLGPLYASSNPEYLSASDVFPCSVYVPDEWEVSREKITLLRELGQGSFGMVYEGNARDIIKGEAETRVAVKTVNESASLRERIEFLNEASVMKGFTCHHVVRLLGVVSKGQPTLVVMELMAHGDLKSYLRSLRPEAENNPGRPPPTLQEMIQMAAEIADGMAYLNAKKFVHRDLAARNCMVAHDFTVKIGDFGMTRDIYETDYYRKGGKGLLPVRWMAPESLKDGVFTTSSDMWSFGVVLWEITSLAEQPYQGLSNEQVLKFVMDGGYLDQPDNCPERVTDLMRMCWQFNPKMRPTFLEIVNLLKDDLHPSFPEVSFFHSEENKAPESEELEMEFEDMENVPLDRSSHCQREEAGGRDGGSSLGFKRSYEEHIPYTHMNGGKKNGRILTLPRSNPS

SMILES: O=P(O)(O)C(O)c1ccc2ccccc2c1 (configuration not stated)
- IC50 (Insulin receptor): 200 µM
- IC50 [1]: 250 µM

— ChEMBL document CHEMBL1125830, “Phosphonate-containing inhibitors of tyrosine-specific protein kinases” (J Med Chem, 1991)
